Results as given in patent publication US20240200022A1, “METHODS AND SYSTEMS FOR THE CULTURE OF CELLS AT LIQUID-LIQUID INTERFACES” (QUEEN MARY UNIVERSITY OF LONDON, priority 2017, published 2024).

Key:
Assay type in all cases: cell-based, human
HaCaT cells [1] = experiment: HaCaT cell spreading assay on oil interfaces (cell area from phalloidin staining); conditions: HaCaT on BSA interfaces, Novec 7500+PFBC; blebbistatin 10 μM, Y27632 10 μM, Cytochalasin D 1 μM
Method: Generation of fluorinated oil droplet substrates for cell culture. Thin glass slides (25×60 mm, VWR) were plasma oxidized for 10 minutes and placed into a staining jar. Toluene (1 mL, Sigma-Aldrich) and 30 μL trichloro (1H, 1H, 2H, 2H-perfluorooctyl) silane (Sigma-Aldrich) were added in a glass vial. The staining jar containing the glass slides and the glass vial with the silane solution were placed into a desiccator under vacuum for 5 min and then left under reduced atmosphere but sealed overnight. The fluorinated glass slides were cut into chips (1×1 cm) and placed into a 24 well plate. After sterilisation with 70% ethanol, the wells were washed (twice) and then filled with 2 mL PBS (pH 7.4, except when specified, for the adsorption of poly(L-lysine) at pH 10.5). 100 tL droplets of fluorinated oil (Novec 7500) with fluorinated surfactant (2,3,4,5,6-Pentafluorobenzoyl chloride) at specified concentrations (see specific experiments, but often 0.01 mg/mL) were deposited on top of the glass slide and formed a fluorinated oil droplet spreading over the entire substrate. […] For the deposition of BSA, a 10 μL BSA solution (100 mg/mL) was added into PBS, to make a final concentration of 1 mg/mL, and incubated for 1 h.
HaCaT keratinocyte cell line culture and seeding. Human keratinocyte HaCaT cells were cultured in DMEM (Thermofisher Scientific) containing 10% foetal bovine serum (FBS, Labtech), 1% L-Glutamine (200 mM) and 1% Penicillin-Streptomycin (5,000 U/mL). […] For cell spreading assays HaCaT cells were harvested and seeded onto fluorinated droplets at a density of 25,000 per well (13,000 per cm^2).
Immuno-fluorescence microscopy and data analysis. Fluorescence microscopy images were acquired with a Leica DMI4000B fluorescence microscopy (CTR4000 lamp; 63×1.25 NA, oil lens; 10×0.3 NA lens; 2.5×0.07 NA lens; DFC300FX camera). […] To determine adhesion cell areas, images were analyzed by thresholding and watershedding fluorescence images of the cytoskeleton (phalloidin stained). […]

MSCs = experiment: MSC culture on fluorinated oils conditioned with culture medium only; conditions: after 7 days of culture; no protein nanosheets deposition, conditioning with cell culture medium
Method: (§1) Generation of liquid-liquid (FC-40) interfaces for cell culture. 24 well plates were plasma oxidized using a plasma coater (Diener, 100% intensity) for 10 minutes. 500 mL ethanol (VWR chemicals), 10 mL trimethylamine (Sigma-Aldrich) and 10 mL of the desired silane (triethoxy(octyl)silane (Sigma-Aldrich) to prepare interfaces with liquid PDMS, or trichloro (1H, 1H, 2H, 2H-perfluorooctyl) silane (Sigma-Aldrich) for the fluorinated oil) were added into each well. Ethanol was added in between wells to slow down evaporation and parafilm was used to seal the well plate lid. After incubating for 24 h, the wells were washed in a sterile environment with ethanol (twice) and ddH2O (three times). 500 μL FC-40 (Sigma) was added in the fluorophilic 24 well plate to form the bottom liquid layer, 2 mL of MSC growth medium was directly added on the FC-40 layer, 5K cells were seeded in each well.

primary keratinocytes = experiment: Keratinocyte cell sheet formation on flat fluorinated oil interfaces; conditions: FAD medium containing ROCK inhibitor, 10 μM; PLL-functionalised fluorinated oil
From the text: Keratinocyte culture and seeding.
Immunofluorescence staining and antibodies.
Immuno-fluorescence microscopy and data analysis. Fluorescence microscopy images were acquired with a Leica DMI4000B fluorescence microscopy (CTR4000 lamp; 63×1.25 NA, oil lens; 10×0.3 NA lens; 2.5×0.07 NA lens; DFC300FX camera). Confocal microscopy images were acquired with a Leica TCS SP2 confocal and multiphoton microscope (X-Cite 120 LED lamp; 63×1.40-0.60 NA, oil lens; 10×0.3 NA lens; DFC420C CCD camera). To determine cell densities per mm^2, cell counting was carried out by thresholding and watershedding nuclei images in ImageJ. […] To determine adhesion cell areas, images were analyzed by thresholding and watershedding fluorescence images of the cytoskeleton (phalloidin stained). The area of cell clusters was removed when analysing results.

HaCaT cells [2] = experiment: HaCaT cell proliferation on liquid substrates (Hoechst staining); conditions: fluorinated oil supplemented with the surfactant
Method: as §1, with “liquid-liquid” for “liquid-liquid (FC-40)”, “[…]” for “mL”, “PDMS” for “PDMS,”, “cover.” for “lid.”, “500 μL FC-40 (Sigma) was added in the fluorophilic 24 well plate to form the bottom liquid layer, 2 mL of MSC growth medium was directly added on the FC-40 layer, 5K cells were seeded in each well.” left out
Hoechst staining and LIVE/DEAD cell viability assay. Cell proliferation was assessed via Hoechst staining. […] Viability of HaCaT cells on fluorinated oil interfaces was quantified by LIVE/DEAD viability/cytotoxicity assay using a kit supplied by Thermofisher Scientific. In brief, HaCaT cells were incubated in DMEM with 2 μM Calcein AM and 4 μM Ethidium homodimer for 30 min. stained cells were imaged using a Leica DM14000 fluorescence microscopy (see below). The percentage of viable cells was calculated by counting the number of green (live) cells and dividing by the total number of cells (including dead cells).
Immuno-fluorescence microscopy and data analysis. […]

Compound | cell spreading on oil (HaCaT cells [1]) | further results
Cc1ccc2c(c1)C(=O)C1(O)CCN(c3ccccc3)C1=N2 (stereo not drawn) [Blebbistatin, blebbistatin] | slight increase | –
CCOC(F)(C(F)(F)C(F)(F)C(F)(F)F)C(F)(C(F)(F)F)C(F)(F)F (stereo not drawn) [Novec 7500, hexane, 3-ethoxy-1,1,1,2,3,4,4,5,5,6,6,6-dodecafluoro-2-(trifluoromethyl)] | – | MSC proliferation (MSCs): did not lead to any significant cell proliferation
C[C@@H](N)[C@H]1CC[C@H](C(=O)Nc2ccncc2)CC1 [Y27632] | further decreased | integrity of keratinocyte cell sheets on oil (primary keratinocytes): preserved their integrity
C=C1[C@@H](C)[C@H]2[C@H](Cc3ccccc3)NC(=O)[C@]23[C@H](OC(C)=O)/C=C/[C@@](C)(O)C(=O)[C@@H](C)C/C=C/[C@H]3[C@@H]1O [cytochalasin D, Cytochalasin D] | further decreased | –
O=C(Cl)c1c(F)c(F)c(F)c(F)c1F [pentafluorobenzoyl chloride, 2,3,4,5,6-pentafluorobenzoyl chloride] | – | HaCaT cell proliferation at the surface of fluorinated oil (HaCaT cells [2]): proliferated
